Source: patent US20180353518A1, “OPHTHALMIC SOLUTIONS” (Santen Pharmaceutical Co., LTD., priority 2000, published 2018)

Test: Solubility Test with polysorbate 80 in water
Type: physicochemical
Details: room temperature and 40° C.
Method: In order to formulate a drug which is hardly soluble in water in an ophthalmic solution, it is necessary to devise to dissolve the drug in water. Since the nonionic surfactant acts as the solubilizing agent, the following solubility tests were performed in order to make sure of its required amount.
Test method: The present compound having a concentration exceeding solubility and polysorbate 80 were added to 10 ml of water, the mixtures were stirred at 5° C., room temperature and 40° C. for 24 hours respectively and then centrifuged at 20,000 rpm, and concentrations of the present compound contained in the supernatants were measured by the HPLC method. […] The “%” in the FIGURE is % by weight.

With `CC(C)OC(=O)CCC/C=C\C[C@@H]1[C@@H](/C=C/C(F)(F)COc2ccccc2)[C@H](O)C[C@@H]1O` [the present compound, 16-Phenoxy-15-deoxy-15,15-difluoro-17,18,19,20-tetranorprostaglandin F2α isopropyl ester] the “Water-solubility of the present compound versus temperature” value (5° C., with polysorbate 80 (FIG. 1)) was “at low temperatures is higher than that at high temperatures” and the “solubility of the present compound versus amount of polysorbate 80” value (water, stirred 24 hours at 5° C., supernatant by HPLC (FIG. 1)) was “increases depending on amounts of polysorbate 80”.
